According to publication PMC12232376, “A Lysozyme-Derived Peptide Induces GLP‑1 Secretion in Mouse Jejunal Organoids and Modulates Glycemia in Rats” (Journal of Agricultural and Food Chemistry, 2025):
Where no end group is shown, it is not given here.

Key:
[1] = tested on: mouse intestinal organoids
Protocol: On the day of the experiment, the medium was discarded, and the Matrigel was removed with cold PBS. Next, the organoids were centrifuged for 3 min at 300 × g, the medium was discarded, and after three washes, the organoids were resuspended in saline buffer (20 mM HEPES 1 M, 1 mM glucose, 140 mM NaCl, 4.5 mM KCl, 1.2 mM CaCl2, 1.2 mM MgCl2, 0.1% BSA, pH 7.4). The organoids were incubated for 40 min at 37 °C in this buffer. These organoids were resuspended in a new saline buffer and transferred to 96-well plates at a 60 organoids per well-ratio. The samples (EWD at 2 mg/mL, Phe at 20 mM, and synthetic peptide at 1 mM) were diluted in saline buffer, added to the well, and assayed in triplicate. […] After 10, 30, and 60 min, the plate was centrifuged for 3 min at 300 × g, supernatants were collected, organoids were lysed with QIAzol (Qiagen, Hilden, Germany), and samples were stored at −80 °C for further analysis.
The percentage of each sequence was calculated relative to the total area in each sample.

[2] = tested on: STC-1 cells; conditions: earlier screening in STC-1; ref authors' previous study (number not given); cited from earlier work
Protocol: Later, other authors, using the enteroendocrine cell line STC-1, have related the GLP-1-inducing effect to peptides of molecular mass between […], and it was shown that peptides present a greater induc ... || There is little information about the structural features necessary to induce secretion by enteroendocrine cells of GLP-1. The organoid cellular media collected at 60 min were analyzed by HPLC–MS/MS in order to assess the possible proteolysis of the assayed peptides during the incubation. The small intestine brush border has different enzymes, oligopeptidases, lipases, and carbohydrases that contribute to nutrient hydrolysis and absorption. Other authors have described that enterocytes present in mouse intestinal organoids have mature brush borders, with the presence of their typical enzymes, ...

[3] = tested on: mouse jejunal organoids; test: GLP-1 secretion in mouse jejunal organoids (GLP-1 Active ELISA of supernatants); type: cell-based; conditions: Phe 20 mM, peptide 1 mM, n = 3
Protocol: Mouse intestinal organoids (enteroids) were derived from adult intestinal stem cells (ISCs). Intestinal crypts were isolated from the jejunum of male and female wild-type mice following the protocol provided by STEMCELL Technologies. Crypts were cultured at 37 °C until organoids were fully developed (5–7 days). Intestinal organoids were suspended in 10 mL of cold DMEM/F12 (Lonza, Basel, Switzerland), and the crypts were suspended in a mixture (50:50) of Matrigel (Corning, NY, USA) and complete IntestiCult Organoid Growth Medium (STEMCELL Technologies, Vancouver, Canada). This mix was gently placed in the center of each well of a prewarmed 24-well plate until the Matrigel solidified and formed a dome. IntestiCult Organoid Growth Medium (STEMCELL Technologies, Vancouver, Canada) was added, and crypts were cultured at 37 °C and 5% CO2 until organoids were developed. After 7 days, the mouse intestinal organoids were passed following the STEMCELL Technologies protocol. The experiments were performed from passage numbers 1 to 6.
(§1) After hormonal secretion studies, GLP-1_7–36NH2 was measured in the supernatants of cells or organoids in duplicate with the commercial immunoassay Glucagon-Like Peptide-1 Active ELISA (Merck KGaA, Darmstadt, Germany), according to the manufacturer’s instructions.

[4] = tested on: PYY gene expression; test: Relative PYY gene expression in STC-1 cells (qPCR); type: cell-based; conditions: 60 min, Phe 20 mM
Protocol: (§2) Cells were cultured at 37 °C, 5% CO2, and a humidified atmosphere for 48 h into 24-well plates at a density of 3 × 10^5 cells per well.
(§3) For RNA isolation, frozen STC-1 cells or organoids were homogenized in QIAzol, and total RNA was isolated using the miRNeasy Mini Kit (Qiagen, Hilden, Germany). Total RNA was quantified in a NanoDrop 2000 spectrophotometer (Thermo Scientific, MA, USA). According to the instructions, total RNA was reverse transcribed to cDNA using a Script II RT Kit (Qiagen, Hilden, Germany). RNA expression levels were determined in duplicate by quantitative real-time PCR (qPCR) on a 7900HT Real-Time PCR System (Applied Biosystems), using miScript SYBR Green PCR Kits (Qiagen, Hilden, Germany).
(§4) Amplification was initiated at 50 °C for 2 min and at 95 °C for 10 min, followed by 40 cycles of 95 °C for 15 s and 60 °C for 1 min. The following specific oligonucleotides were used: for cholecystokinin (CCK) forward (F) 5′-[…]-3′ and reverse (R) 5′-[…]-3′; for GLP-1 (F) 5′-[…]-3′ and (R) 5′-[…]-3′; for peptide YY (PYY) (F) 5′-[…]-3′ and (R) 5′-[…]-3′; and for reference gene β-actin (F) 5′-[…]-3′ and (R) 5′-[…]-3′. The relative expression levels of the target gene were calculated using the comparative critical threshold method (2^–ΔΔCt), by normalizing the data to the expression of β-actin.

[5] = tested on: CCK gene expression; test: Relative CCK gene expression in organoids (qPCR); type: cell-based, mouse; conditions: peptide 1 mM (induced at 60 min), Phe 20 mM (induced from 30 min), versus control
Protocol: as §3, §4

[6] = tested on: proglucagon gene expression; test: Relative proglucagon gene expression in organoids (qPCR); type: cell-based, mouse; conditions: 10 min, Phe 20 mM, 2^-ΔΔCt normalised to β-actin, versus control
Protocol: as §3, §4

[7] = tested on: p-IRS; test: Immunoblotting p-IRS/IRS in STC-1 cells; type: cell-based; conditions: peptide 1 mM, EWD 2 mg/mL, Phe 20 mM, 5, 15, 30, 60 min, immunoblot
Protocol: […]; then, cells were lysed with RIPA buffer, and ERK1/2, p-ERK1/2, AMPK, p-AMPK, p-IRS-1, IRS-1, glyceraldehyde-3-phosphate dehydrogenase (GAPDH), and heat shock protein (HSP90) contents were examined using immunoblotting. Protein samples were lysed, separated on 10% SDS-polyacrylamide gels, and the separated proteins were electroblotted from the gel onto nitrocellulose membranes ([…], Millipore, MA, USA) and blocked with skim milk for 30 min at room temperature. Membranes were incubated with primary antibodies overnight at 4 °C. After incubation, membranes were exposed to secondary antibodies for 45 min at room temperature. Blots were rinsed three times with Tris-buffered saline with Tween 20, pH 8.0, after each incubation step and visualized using an Odyssey infrared imaging system (LI-COR, Lincoln, NE, USA).

[8] = tested on: STC-1 cells; test: GLP-1 secretion in STC-1 cells (GLP-1 Active ELISA of supernatants); type: cell-based; conditions: Phe 20 mM, peptide 1 mM, n = 3
Protocol: STC-1 cells supplied by ATCC (ATCC CRL-3254, Manassas, VA, USA) were cultured in Dulbecco’s Modified Eagle’s Medium (ATCC, Manassas, VA, USA) supplemented with 100 U/mL penicillin, 100 mg/L streptomycin, 0.25 μg/mL amphotericin (Lonza Group, Basel, Switzerland), and 10% fetal bovine serum (ATCC, Manassas, VA, USA). Cells were incubated at 37 °C in a 5% CO2 humidified atmosphere, and once they reached 80% confluence, they were trypsinized and seeded according to each cell study. The experiments were performed from passage numbers 31–35.
as §2, §1

[9] = tested on: CCK gene expression; test: Relative CCK gene expression in STC-1 cells (qPCR); type: cell-based; conditions: 60 min, Phe 20 mM
Protocol: as §2, §3, §4

[10] = tested on: PYY gene expression; test: Relative PYY gene expression in organoids (qPCR); type: cell-based, mouse; conditions: organoids, 10, 30, 60 min; EWD 2 mg/mL, Phe 20 mM, peptide 1 mM
Protocol: as §3, §4

WARGCRL [WARGCRL]
Susceptibility to peptidases in organoids, in words [1]: most susceptible sequences to the action of peptidases

WIRACRL [WIRACRL]
Susceptibility to peptidases in organoids, in words [1]: most susceptible sequences to the action of peptidases

IRGCRL [124IRGCRL129, hexapeptide, shorter form of 123WIRGCRL129 found in organoid supernatants]
GLP-1 secretion in STC-1 cells, in words [2]: induce GLP-1 in STC-1, although at lower levels than the tryptophan-containing precursor peptide

WIRGARL [WIRGARL]
Susceptibility to peptidases in organoids, in words [1]: most susceptible sequences to the action of peptidases

N[C@@H](Cc1ccccc1)C(=O)O [Phe, Phenylalanine]
GLP-1 release in organoids versus control, in words ([3]; 10, 30 and 60 min, EWD 2 mg/mL): faster GLP-1 induction was observed in the case of Phe (10 min) | GLP-1 release in organoids ([3]; 60 min, 60 organoids per well in saline buffer pH 7.4, 37 °C, ELISA, mean ± SEM): 43.7 ± 1 pM | PYY gene overexpression [4]: 2 fold | CCK gene expression, maximum fold change [5]: 2.8 fold change | Relative proglucagon gene expression [6]: 1.8 fold change | p-IRS expression versus control, in words [7]: p-IRS overexpression at all time points | GLP-1 release in STC-1 cells versus control, in words ([8]; 10, 30 and 60 min, EWD 2 mg/mL): only reached significance after incubation with the peptide or Phe for 60 min | GLP-1 induced in STC-1 cells ([8]; HEPES buffer pH 7.4, time not printed at the place (60 min by b40), ELISA, mean ± SEM): 416.6 ± 40.1 pM | CCK gene overexpression [9]: 4 fold | PYY gene expression versus control, in words [10]: an effect of both the peptide and Phe was observed at 10 min, with Phe keeping the increased expression at 30 min
